According to patent US20240148821A1, “PHARMACEUTICAL USE OF CYCLIC PEPTIDE COMPOUND” (CHUGAI SEIYAKU KABUSHIKI KAISHA, priority 2021, published 2024):
pIC50: −log10 of the molar value. Bridge positions count the residues as written; N and C are the ends. Square brackets hold non-standard residues; d marks the D form. Peptide text beside a SMILES is read from it. * marks the point of attachment. hPhe(3-Cl-4-CF3) = N[C@@H](CCc1ccc(C(F)(F)F)c(Cl)c1)C(=O)O; hPhe(3-F,4-CF3) = N[C@@H](CCc1ccc(C(F)(F)F)c(F)c1)C(=O)O; NMeAbu(4,4,4-F3) = CN[C@@H](CC(F)(F)F)C(=O)O; NMePhe(4-Cl) = CN[C@@H](Cc1ccc(Cl)cc1)C(=O)O; NMePhe(4-Me) = CN[C@@H](Cc1ccc(C)cc1)C(=O)O; Phe(3-I) = N[C@@H](Cc1cccc(I)c1)C(=O)O; dαMeGly(allyl) = C=CC[C@@](C)(N)C(=O)O; NMe4Pal = CN[C@@H](Cc1ccncc1)C(=O)O; NMeCha = CN[C@@H](CC1CCCCC1)C(=O)O; NMeChg = CN[C@H](C(=O)O)C1CCCCC1; NMeI = CC[C@H](C)[C@H](NC)C(=O)O; N(CH2CH2)2CF2 = FC1(F)CCN(*)CC1; NMeD = CN[C@@H](CC(=O)O)C(=O)O; NMeL = CN[C@@H](CC(C)C)C(=O)O; d(β3hP) = O=C(O)C[C@H]1CCCN1; NMeV = CN[C@H](C(=O)O)C(C)C; d(β3hA) = C[C@@H](N)CC(=O)O; NMeS = CN[C@@H](CO)C(=O)O; Pip = O=C(O)[C@@H]1CCCCN1; NMeA = CN[C@@H](C)C(=O)O; NMeAib = CNC(C)(C)C(=O)O; Nle = CCCC[C@H](N)C(=O)O; Piperidide = C1CCN(*)CC1; Pyrrolidide = C1CCN(*)C1; Ac5c = NC1(C(=O)O)CCCC1; Aze = O=C(O)[C@@H]1CCN1; Cyclobutyl = C1CC(*)C1; Aib = CC(C)(N)C(=O)O; Sar = CNCC(=O)O

System: Human pancreatic cancer cell line AsPC-1 (G12D mutation Kras)
Assay: AsPC-1 cell growth inhibition (AsPC-1 CGI)
Type: cell-based
Conditions: read-out: AsPC-1 cell growth inhibition, 50% growth inhibitory concentration (IC50 value); 96 hours, CellTiter-Glo, values classified in ranges
Protocol: Test compounds were serially dilated with dimethyl sulfoxide, and 200 nL was then dispensed to a U-bottom 96-well plate using Labcyte Echo. […] The cell suspension was dispensed to a. plate containing a test compound at 100 μL per well and incubated at 37° C. in a 5% carbon dioxide gas incubator. 96 hours later, 80 μL of CellTiter-Glo (Promega) was added to each well and fluorescence was measured.

| SMILES | pIC50 |
| --- | --- |
| CC[C@H](C)[C@@H]1NC(=O)[C@H](CC(C)C)N(C)C(=O)C[C@@H](C(=O)N2CCCCC2)N(C)C(=O)[C@H](C(C)C)N(C)C(=O)C(C)(C)NC(=O)[C@H](CC(=O)N2CCC(F)(F)CC2)N(C)C(=O)[C@H](CCc2ccc(C(F)(F)F)c(Cl)c2)NC(=O)CN(C)C(=O)[C@H](CC2CCCCC2)N(C)C(=O)CN(C)C(=O)CN(C)C1=O [Compound 463] ([NMeL]I[Sar][Sar][NMeCha][Sar][hPhe(3-Cl-4-CF3)][NMeD](N(CH2CH2)2CF2)[Aib][NMeV][NMeD]-Piperidide; lactam N-11) | < 6.30 |
| CC[C@H](C)[C@@H]1NC(=O)[C@H](CC(C)C)N(C)C(=O)C[C@@H](C(=O)N2CCCCC2)N(C)C(=O)[C@H](COC2CCC2)N(C)C(=O)C2(CCCC2)NC(=O)[C@@H]2CCCN2C(=O)[C@H](CCc2ccc(C(F)(F)F)c(Cl)c2)NC(=O)CN(C)C(=O)[C@H](CC2CCCCC2)N(C)C(=O)CN(C)C(=O)CN(C)C1=O [Compound 585] ([NMeL]I[Sar][Sar][NMeCha][Sar][hPhe(3-Cl-4-CF3)]P[Ac5c][NMeS](Cyclobutyl)[NMeD]-Piperidide; lactam N-11) | < 6.30 |
| C=CC[C@@]1(C)NC(=O)[C@@H]2CCCN2C(=O)[C@H](CCc2ccc(C(F)(F)F)c(Cl)c2)NC(=O)CN(C)C(=O)[C@H](CC2CCCCC2)N(C)C(=O)CN(C)C(=O)CN(C)C(=O)[C@H]([C@@H](C)CC)NC(=O)[C@H](CC(C)C)N(C)C(=O)C[C@@H](C)NC(=O)[C@H](C(C)C)N(C)C1=O [Compound 665] (cyclo(I[Sar][Sar][NMeCha][Sar][hPhe(3-Cl-4-CF3)]P[dαMeGly(allyl)][NMeV][d(β3hA)][NMeL])) | < 6.30 |
| CC[C@H](C)[C@@H]1NC(=O)[C@H](CC(C)C)N(C)C(=O)C[C@@H](C(=O)N2CCCCC2)N(C)C(=O)[C@H](C2CCCCC2)N(C)C(=O)C2(CCCC2)NC(=O)[C@@H]2CCCN2C(=O)[C@H](CCc2ccc(C(F)(F)F)c(Cl)c2)NC(=O)CN(C)C(=O)[C@H](CC(F)(F)F)N(C)C(=O)CN(C)C(=O)CN(C)C1=O [Compound 1841] ([NMeL]I[Sar][Sar][NMeAbu(4,4,4-F3)][Sar][hPhe(3-Cl-4-CF3)]P[Ac5c][NMeChg][NMeD]-Piperidide; lactam N-11) | < 6.30 |
| CCCC[C@@H]1NC(=O)[C@H](Cc2cccc(I)c2)NC(=O)CN(C)C(=O)[C@H](Cc2ccc(C)cc2)N(C)C(=O)CN(C)C(=O)CN(C)C(=O)[C@H]([C@@H](C)CC)NC(=O)[C@H](CC(C)C)N(C)C(=O)C[C@@H](C(=O)N2CCCCC2)N(C)C(=O)[C@H](CC(C)C)NC(=O)[C@H](C)N(C)C1=O [Compound 232] ([NMeL]I[Sar][Sar][NMePhe(4-Me)][Sar][Phe(3-I)][Nle][NMeA]L[NMeD]-Piperidide; lactam N-11) | < 6.30 |
| CCCC[C@@H]1NC(=O)[C@H](CCc2ccc(C(F)(F)F)c(Cl)c2)NC(=O)CN(C)C(=O)[C@H](Cc2ccc(Cl)cc2)N(C)C(=O)[C@@H]2CCN2C(=O)CN(C)C(=O)[C@H]([C@@H](C)CC)NC(=O)[C@@H]2CCCCN2C(=O)C[C@@H](C(=O)N2CCCCC2)N(C)C(=O)[C@H](CC(C)C)NC(=O)C(C)(C)N(C)C1=O [Compound 352] ([Pip]I[Sar][Aze][NMePhe(4-Cl)][Sar][hPhe(3-Cl-4-CF3)][Nle][NMeAib]L[NMeD]-Piperidide; lactam N-11) | < 6.30 |
| CC[C@H](C)[C@@H]1NC(=O)[C@H](CC(C)C)N(C)C(=O)C[C@@H](C(=O)N2CCCC2)NC(=O)[C@H](CC(C)C)N(C)C(=O)C2(CCCC2)NC(=O)[C@@H]2CCCN2C(=O)[C@H](CCc2ccc(C(F)(F)F)c(F)c2)NC(=O)CN(C)C(=O)[C@H](CC2CCCCC2)N(C)C(=O)CN(C)C(=O)CN(C)C1=O [Compound 1489] ([NMeL]I[Sar][Sar][NMeCha][Sar][hPhe(3-F,4-CF3)]P[Ac5c][NMeL]D-Pyrrolidide; lactam N-11) | < 6.30 |
| CC[C@H](C)[C@@H]1NC(=O)[C@H](CC(C)C)N(C)C(=O)C[C@H]2CCCN2C(=O)[C@H](C2CCCCC2)N(C)C(=O)C2(CCCC2)NC(=O)[C@@H]2CCCN2C(=O)[C@H](CCc2ccc(C(F)(F)F)c(Cl)c2)NC(=O)CN(C)C(=O)[C@H](CC2CCCCC2)N(C)C(=O)CN(C)C(=O)CN(C)C1=O [Compound 1185] (cyclo([Ac5c][NMeChg][d(β3hP)][NMeL]I[Sar][Sar][NMeCha][Sar][hPhe(3-Cl-4-CF3)]P)) | < 6.30 |
| CC[C@H](C)[C@@H]1NC(=O)[C@H](CC(C)C)N(C)C(=O)C[C@@H](C(=O)N(C)C)N(C)C(=O)[C@H]([C@@H](C)CC)N(C)C(=O)[C@H](C(C)C)NC(=O)[C@H](Cc2ccncc2)N(C)C(=O)[C@H](CCc2ccc(C(F)(F)F)c(Cl)c2)NC(=O)CN(C)C(=O)[C@H](Cc2ccc(C)cc2)N(C)C(=O)[C@@H]2CCN2C(=O)[C@H](C)N(C)C1=O [Compound 1897] ([NMeL]I[NMeA][Aze][NMePhe(4-Me)][Sar][hPhe(3-Cl-4-CF3)][NMe4Pal]V[NMeI][NMeD]-NMe2; lactam N-11) | < 6.30 |
